Assay results from US7993928B2, “Detection of blood plasma Danshensu and Salvianolic acid B dissipating blood stasis botanical” (Shanghai Sundise, priority 2007, dated 2011).

Settings: mammal plasma collected 0.5 hours after being drenched with strengthening body resistance and dissipating blood stasis botanical (FZHY); solid-phase extraction, UPLC/MS negative ion mode
Description: Method of pretreating mammalian blood plasma sample: Collect mammal plasma containing drugs 0.5 hours after being administered the strengthening body resistance and dissipating blood stasis botanical, misce bene after adding 2-5 mol/L phosphoric acid, and the volume ratio between the blood plasma and phosphoric acid is 1:2-3, applying the blood plasma with drugs to small column of WATERS OASIS HLB (a type of chromatographic column) activated by methanol and water; after leaching with water and 80-100% methanol and eluting with 0.2-1% ammonia-methanol, drying and enriching the eluent under the condition of 25-30° C., and redissolving the eluent with mobile phase.
UPLC/MS detection method: The analysis conditions of the applied UPLC/MS method in this invention, UPLC condition: chromatographic column: ACQUITY HPLC BEH C18 (a type of chromatographic column), 2.1×100 mm, mobile phase A: Water-Acetonitrile-Formic acid 95:5:0.1 v/v/v, mobile phase B: Acetonitrile-Formic acid 100:0.1 v/v, eluting in accordance with the following gradient: […]

| Structure (SMILES) | Detection in the blood plasma |
| --- | --- |
| O=C(O)[C@H](O)Cc1ccc(O)c(O)c1 [Danshensu] | can be detected |
| O=C(/C=C/c1ccc(O)c2c1[C@H](C(=O)O[C@H](Cc1ccc(O)c(O)c1)C(=O)O)[C@@H](c1ccc(O)c(O)c1)O2)O[C@H](Cc1ccc(O)c(O)c1)C(=O)O [Salvianolic acid B] | can be detected |
